Laboratory results taken from patent US10800775B2, “Pyrazolyl pyrrolo[2,3-b]pyrmidine-5-carboxylate analogs and methods of making the same” (ACLARIS THERAPEUTICS, INC., priority 2017, dated 2020).
pIC50: −log10 of the molar value.

Experiments:
[1] = test system: IFNγ stimulated STAT1 phosphorylation on Tyr701 (JAK1/2); test: JAK1/2 phospho-STAT1 cellular target modulation assay, IFNγ stimulated human PBMC; format: cell-based; conditions: IFNγ 10 ng/ml, read-out: Infγ-STAT1 IC50
Excerpt: (§1) Target modulation was based upon the ability of a compound to inhibit JAK isoform specific phosphorylation of selected substrates. IL-2 stimulated STAT5 phosphorylation on Tyr694 was used to assess JAK1/3 compound selectivity. GM-CSF stimulated STAT5 phosphorylation on Tyr694 was used to assess JAK2 compound selectivity. IFNγ stimulated STAT1 phosphorylation on Tyr701 was used to assess JAK1/2 compound selectivity. For all three assays, human PBMC from frozen stocks were thawed, pelleted, resuspended in complete media (90% RPMI, 10% heat inactivated FBS, 10 mM HEPES, 47 μM 2-ME, pen/strep) and placed in wells of a 96 well V-bottom plate at 200,000 per well in 120 μl complete media. Compounds were added as 15 μl per well of 10× working stock solutions in complete media with 1% DMSO (or medium with 1% DMSO for controls) and placed on a plate shaker in a 37° C. incubator with 5% CO2 for 1 hour with gentle shaking (setting of 3). Stimulation used the addition of soluble cytokines. For the JAK1/3 phospho-STAT5 assay, 15 μl of 10× working stock recombinant human IL-2 was added to a final concentration of 25 ng/ml. For the JAK2 phospho-STAT5 assay, 15 μl of 10× working stock recombinant human GM-CSF was added to a final concentration of 5 ng/ml. For the JAK1/2 phospho-STAT1 assay, 15 μl of 10× working stock of recombinant human IFNγ was added to a final concentration of 10 ng/ml. Plates were then placed back on the plate shaker in the incubator for an additional 5, 5 and 10 minutes respectively upon which the plates were removed from the incubator, sealed with a plate sealer and the cells pelleted at 400×g for 5 minutes. After pelleting, the media was removed by aspiration and the cells were lysed in ELISA specific cell lysis buffer. The levels of phospho-STAT5 were determined using a Phospho (Tyr694)/Total STAT5a,b Whole Cell Lysate kit from Meso Scale Discovery. Levels of phospho-STAT1 were determined using a CST-PathScan Phospho-STAT1 (Tyr701) Sandwich ELISA kit.

JAK1 = JAK1 (Homo sapiens (Human), UniProt P23458); test: JAK1 enzyme activity assay (Z-lyte, Thermo Fisher Selectscreen); format: biochemical; conditions: 2 μM Tyr 06 peptide, read-out: JAK1 Inhibition IC50
Chain of JAK1 (P23458 whole entry): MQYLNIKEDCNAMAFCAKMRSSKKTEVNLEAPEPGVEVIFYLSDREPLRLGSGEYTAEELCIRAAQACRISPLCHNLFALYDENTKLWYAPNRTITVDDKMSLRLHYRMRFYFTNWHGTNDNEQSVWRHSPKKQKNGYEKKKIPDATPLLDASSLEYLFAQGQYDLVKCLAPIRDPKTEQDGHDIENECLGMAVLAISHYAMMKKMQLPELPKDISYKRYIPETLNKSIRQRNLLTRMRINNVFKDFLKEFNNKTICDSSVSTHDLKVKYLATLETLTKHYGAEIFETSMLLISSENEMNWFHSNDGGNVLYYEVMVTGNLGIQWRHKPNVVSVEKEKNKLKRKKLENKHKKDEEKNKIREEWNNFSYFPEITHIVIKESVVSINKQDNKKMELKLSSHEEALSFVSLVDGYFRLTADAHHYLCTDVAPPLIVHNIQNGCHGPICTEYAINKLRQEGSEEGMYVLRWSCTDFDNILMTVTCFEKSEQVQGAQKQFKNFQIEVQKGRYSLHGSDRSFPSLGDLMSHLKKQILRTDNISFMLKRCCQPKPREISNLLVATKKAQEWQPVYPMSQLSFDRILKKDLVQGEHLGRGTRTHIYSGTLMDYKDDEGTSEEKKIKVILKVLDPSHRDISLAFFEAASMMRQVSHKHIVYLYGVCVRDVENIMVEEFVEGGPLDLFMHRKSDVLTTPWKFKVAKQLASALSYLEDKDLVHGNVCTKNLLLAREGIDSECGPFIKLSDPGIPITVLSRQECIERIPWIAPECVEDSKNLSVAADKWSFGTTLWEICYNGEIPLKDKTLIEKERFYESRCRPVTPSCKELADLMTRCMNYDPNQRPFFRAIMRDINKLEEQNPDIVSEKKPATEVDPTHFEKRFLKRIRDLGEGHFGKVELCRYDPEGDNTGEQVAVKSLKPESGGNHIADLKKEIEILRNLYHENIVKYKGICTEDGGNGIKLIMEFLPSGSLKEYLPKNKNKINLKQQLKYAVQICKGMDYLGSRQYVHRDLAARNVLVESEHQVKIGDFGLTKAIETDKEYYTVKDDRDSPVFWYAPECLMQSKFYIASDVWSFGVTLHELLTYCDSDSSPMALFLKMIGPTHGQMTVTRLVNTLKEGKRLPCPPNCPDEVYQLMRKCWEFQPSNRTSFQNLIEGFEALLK
Protocol: The inhibitory potency of candidate compounds of JAK1 done at Thermo Fisher Scientific in their Selectscreen using a Z-lyte assay. The 2×JAK1/Tyr 06 mixture is prepared in 50 mM HEPES pH 6.5, 0.01% BRIJ-35, 10 mM MgCl2, 1 mM EGTA, 0.02% NaN3. The final 10 μL of the Kinase Reaction consists of 21.2-91.5 ng JAK1 and 2 μM Tyr 06 in 50 mM HEPES pH 7.0, 0.01% BRIJ-35, 10 mM MgCl2, 1 mM EGTA, 0.01% NaN3. After the 1 hour Kinase Reaction incubation, 5 μL of a 1:128 dilution of Development Reagent is added.
Background signal is defined in the absence of enzyme and uninhibited signal is defined in the presence of vehicle (2% DMSO) alone. Compounds were evaluated in an 11 point dose-response ranging from […] to 0.34 nM. IC50 values of compounds are determined using a 4 parameter logistical fit of emission ratio as a function of the concentration of compound.

JAK3 (a.a. 781-1124) = JAK3 (a.a. 781-1124) (Homo sapiens (Human), UniProt P52333); test: JAK3 enzyme activity assay (SRCtide phosphorylation, Caliper); format: biochemical; conditions: 2.5 nM JAK3, 1 μM SRCtide, 1 uM ATP; read-out: JAK3 Inhibition IC50
Chain of JAK3 (a.a. 781-1124) (P52333 781-1124): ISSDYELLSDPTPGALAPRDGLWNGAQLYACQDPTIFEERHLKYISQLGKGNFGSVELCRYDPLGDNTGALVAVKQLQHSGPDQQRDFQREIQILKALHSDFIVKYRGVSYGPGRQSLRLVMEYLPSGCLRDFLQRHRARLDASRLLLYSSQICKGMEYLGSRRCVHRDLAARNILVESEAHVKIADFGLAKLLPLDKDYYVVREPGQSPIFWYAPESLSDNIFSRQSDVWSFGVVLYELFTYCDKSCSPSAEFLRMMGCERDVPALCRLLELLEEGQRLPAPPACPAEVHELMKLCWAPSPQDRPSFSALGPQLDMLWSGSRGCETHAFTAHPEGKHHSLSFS
Protocol: The activity of JAK3 (a.a. 781-1124, ThermoFisher) was quantified by measuring the phosphorylation of SRCtide (FAM-GEEPLYWSFPAKKK-NH2). Kinase reactions were run in a 384-well Greiner plate with 2% final DMSO concentration under the buffer conditions of 20 mM HEPES, pH 7.5, 10 mM MgCl2, 0.01% BSA, and 0.0005% Tween-20. The kinase reaction components were 2.5 nM JAK3, 1 μM SRCtide peptide and 1 uM ATP. Examples were tested in dose-response starting at 2 μM (11 concentrations, 3-fold serial dilution, duplicate reactions). The reactions were incubated at room temperature for 40 minutes, then stopped by adding a 1:1 volume of 30 mM EDTA in 20 mM HEPES, pH 7.5 (15 mM EDTA final). After the reaction was stopped, the phosphorylated and unphosphorylated peptides were separated and quantified using a Caliper LC3000/EZ-Reader system and HTS Well Analyzer Software (Caliper, A PerkinElmer Company, Hopkinton, Mass.). GraFit (Erithacus Software Ltd., Horley, U.K.) was used to calculate inhibitor potency by fitting dose-response data to the 4-parameter logistical IC50 equation.

[2] = test system: IL-2 stimulated STAT5 phosphorylation on Tyr694 (JAK1/3); test: JAK1/3 phospho-STAT5 cellular target modulation assay, IL-2 stimulated human PBMC; format: cell-based; conditions: IL-2 25 ng/ml, read-out: IL2-STAT5 Inhibition IC50
Excerpt: as §1

Row | Structure (SMILES) | pIC50 [1] | pIC50 (JAK1) | pIC50 (JAK3 (a.a. 781-1124)) | pIC50 [2]
1 | CCOC(=O)c1cnc2[nH]ccc2c1-c1cnn(C(CC#N)C2CCCC2)c1 (racemic) [Example 1, ethyl 4-(1-(2-cyano-1-cyclopentylethyl)-1H-pyrazol-4-yl)-1H-pyrrolo[2,3-b]pyridine-5-carboxylate] | 6.00 to 7.00 | ≥ 8.00 | 7.00 to 8.00 | 6.00 to 7.00
2 | CCOC(=O)c1cnc2[nH]ccc2c1-c1cnn([C@H](CC#N)C2CCCC2)c1 (single isomer, unassigned; stereoisomer 1) [Example 16, ethyl 4-(1-(2-cyano-1-cyclopentylethyl)-1H-pyrazol-4-yl)-1H-pyrrolo[2,3-b]pyridine-5-carboxylate stereoisomer 1] | 6.00 to 7.00 | ≥ 8.00 | 7.00 to 8.00 | 6.00 to 7.00
3 | CCOC(=O)c1cnc2[nH]ccc2c1-c1cnn(C2(CC#N)CN(S(=O)(=O)CC)C2)c1 [Example 9, ethyl 4-(1-(3-(cyanomethyl)-1-(ethylsulfonyl)azetidin-3-yl)-1H-pyrazol-4-yl)-1H-pyrrolo[2,3b]pyridine-5-carboxylate] | 6.00 to 7.00 | ≥ 8.00 | 7.00 to 8.00 | ≥ 7.00

Further lines, results first:

Row | pIC50 [1] | pIC50 (JAK1) | pIC50 (JAK3 (a.a. 781-1124)) | pIC50 [2] | Structure (SMILES)
4 | 6.00 to 7.00 | ≥ 8.00 | 7.00 to 8.00 | ≥ 7.00 | CC(C)OC(=O)c1cnc2[nH]ccc2c1-c1cnn([C@H](CC#N)C2CCCC2)c1 (single isomer, unassigned; enantiomer 1) [Example 18, isopropyl 4-(1-(2-cyano-1-cyclopentylethyl)-1H-pyrazol-4-yl)-1H-pyrrolo[2,3-b]pyridine-5-carboxylate, enantiomer 1]
5 | 6.00 to 7.00 | 7.00 to 8.00 | 7.00 to 8.00 | ≥ 7.00 | CC(C)OC(=O)c1cnc2[nH]ccc2c1-c1cnn([C@@H](CC#N)C2CCCC2)c1 (single isomer, unassigned; enantiomer 2) [Example 19, isopropyl 4-(1-(2-cyano-1-cyclopentylethyl)-1H-pyrazol-4-yl)-1H-pyrrolo[2,3-b]pyridine-5-carboxylate, enantiomer 2]
6 | 6.00 to 7.00 | 7.00 to 8.00 | 7.00 to 8.00 | 6.00 to 7.00 | CCOC(=O)c1cnc2[nH]ccc2c1-c1cnn([C@@H](CC#N)C2CCCC2)c1 (single isomer, unassigned; stereoisomer 2) [Example 17, ethyl 4-(1-(2-cyano-1-cyclopentylethyl)-1H-pyrazol-4-yl)-1H-pyrrolo[2,3-b]pyridine-5-carboxylate stereoisomer 2]
7 | 6.00 to 7.00 | ≥ 8.00 | 7.00 to 8.00 | ≥ 7.00 | CCCOC(=O)c1cnc2[nH]ccc2c1-c1cnn([C@H](CC#N)C2CCCC2)c1 [Example 20, propyl (R)-4-(1-(2-cyano-1-cyclopentylethyl)-1H-pyrazol-4-yl)-1H-pyrrolo[2,3-b]pyridine-5-carboxylate]
